Measured values reported in the NIST ThermoML archive (doi:10.1021/acs.jced.9b00327).
Numbers after ± are expanded uncertainties.

Assay: mn = molality of the nth substance listed, in mol/kg
Details: 100 kPa, Liquid; for speed of sound: Single path-length method; for mass density: Vibrating tube method

NCCCC(=O)O [4-aminobutanoic acid] + O
Details | mass density [kg/m3] | speed of sound [m/s]
293.15 K, m1 = 0.09972 | 1000.99 ± 1.1 | 1491.4 ± 4.3
293.15 K, m1 = 0.1479 | 1002.31 ± 1.1 | 1495.4 ± 4.3
293.15 K, m1 = 0.1942 | 1003.57 ± 1.1 | 1499.3 ± 4.3
293.15 K, m1 = 0.2449 | 1004.94 ± 1.1 | 1503.5 ± 4.3
293.15 K, m1 = 0.2937 | 1006.23 ± 1.1 | 1507.6 ± 4.3
293.15 K, m1 = 0.3452 | 1007.58 ± 1.1 | 1511.8 ± 4.3
293.15 K, m1 = 0.3928 | 1008.82 ± 1.1 | 1515.7 ± 4.3
298.15 K, m1 = 0.09972 | 999.771 ± 1.1 | 1505 ± 4.4
298.15 K, m1 = 0.1479 | 1001.05 ± 1.1 | 1508.9 ± 4.3
298.15 K, m1 = 0.1942 | 1002.26 ± 1.1 | 1512.7 ± 4.3
298.15 K, m1 = 0.2449 | 1003.56 ± 1.1 | 1516.8 ± 4.3
298.15 K, m1 = 0.2937 | 1004.78 ± 1.1 | 1520.7 ± 4.3
298.15 K, m1 = 0.3452 | 1006.04 ± 1.1 | 1524.8 ± 4.3
298.15 K, m1 = 0.3928 | 1007.19 ± 1.1 | 1528.7 ± 4.2
303.15 K, m1 = 0.09972 | 998.354 ± 1.1 | 1517 ± 4.4
303.15 K, m1 = 0.1479 | 999.634 ± 1.1 | 1520.8 ± 4.3
303.15 K, m1 = 0.1942 | 1000.85 ± 1.1 | 1524.4 ± 4.3
303.15 K, m1 = 0.2449 | 1002.16 ± 1.1 | 1528.4 ± 4.3
303.15 K, m1 = 0.2937 | 1003.41 ± 1.1 | 1532.2 ± 4.3
303.15 K, m1 = 0.3452 | 1004.71 ± 1.1 | 1536.2 ± 4.3
303.15 K, m1 = 0.3928 | 1005.89 ± 1.1 | 1539.9 ± 4.2
308.15 K, m1 = 0.09972 | 996.682 ± 1.1 | 1527.4 ± 4.4
308.15 K, m1 = 0.1479 | 997.926 ± 1.1 | 1531.1 ± 4.3
308.15 K, m1 = 0.1942 | 999.104 ± 1.1 | 1534.6 ± 4.3
308.15 K, m1 = 0.2449 | 1000.37 ± 1.1 | 1538.5 ± 4.3
308.15 K, m1 = 0.2937 | 1001.56 ± 1.1 | 1542.1 ± 4.3
308.15 K, m1 = 0.3452 | 1002.8 ± 1.1 | 1546 ± 4.3
308.15 K, m1 = 0.3928 | 1003.92 ± 1.1 | 1549.6 ± 4.2
313.15 K, m1 = 0.09972 | 994.848 ± 1.1 | 1536.3 ± 4.3
313.15 K, m1 = 0.1479 | 996.089 ± 1.1 | 1539.8 ± 4.3
313.15 K, m1 = 0.1942 | 997.262 ± 1.1 | 1543.2 ± 4.3
313.15 K, m1 = 0.2449 | 998.525 ± 1.1 | 1547 ± 4.3
313.15 K, m1 = 0.2937 | 999.722 ± 1.1 | 1550.5 ± 4.3
313.15 K, m1 = 0.3452 | 1000.96 ± 1.1 | 1554.3 ± 4.3
313.15 K, m1 = 0.3928 | 1002.08 ± 1.1 | 1557.8 ± 4.2
318.15 K, m1 = 0.09972 | 992.851 ± 1.1 | 1543.7 ± 4.2
318.15 K, m1 = 0.1479 | 994.097 ± 1.1 | 1547.1 ± 4.2
318.15 K, m1 = 0.1942 | 995.285 ± 1.1 | 1550.4 ± 4.2
318.15 K, m1 = 0.2449 | 996.567 ± 1.1 | 1554 ± 4.2
318.15 K, m1 = 0.2937 | 997.781 ± 1.1 | 1557.5 ± 4.2
318.15 K, m1 = 0.3452 | 999.045 ± 1.1 | 1561.1 ± 4.2
318.15 K, m1 = 0.3928 | 1000.2 ± 1.1 | 1564.5 ± 4.2
